COC(=O)[C@H](N)c1ccccc1.Cl
solubility (mole fraction)
Conditions | in acetone | in ethanol | in ethyl acetate | in methanol | in toluene | in water
283.15 K | 1.3e-05 | 0.015 | 3.9e-05 | 0.076 | 9e-06 | 0.045
293.15 K | 3.6e-05 | 0.022 | 8.5e-05 | 0.081 | 1.5e-05 | 0.058
303.15 K | 7.8e-05 | 0.028 | 0.00015 | 0.085 | 2.3e-05 | 0.068
313.15 K | 0.00013 | 0.033 | 0.00021 | 0.09 | 3.3e-05 | 0.077
323.15 K | 0.00018 | 0.037 | 0.00025 | 0.096 | 4.4e-05 | 0.086
333.15 K | 0.00025 | 0.042 | 0.00029 | 0.1 | 5.6e-05 | 0.095

Reference: BigSolDB 2.1
